Among the test systems are COLO 205 colon; EKVX NSCLC; LOX IMVI melanoma; MOLT-4 leukemia; NCI-H522 lung; OVCAR-3 ovarian; RXF 393 renal; SF-295 CNS; SN12C renal; SNB-19 CNS; U251 CNS; UO-31 renal; SK-OV-3 ovarian; DU-145 prostate; MDA-MB-435.
Assay in all cases: NCI tumour cell line growth inhibition, 48 h

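Compound exposure: 48 hours, 5 concentrations, 96-well plates. Abbreviation: GI50, concentration required for 50% inhibition of growth. TGI denotes the concentration required for complete inhibition of growth.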 Where a SMILES comes first, the peptide text is derived from it. The star is where a group is joined. Boc = CC(C)(C)OC(=O)*

`O=C1CCN(CCC(F)(F)C(F)(F)C(F)(F)C(F)(F)F)C(=S)N1`: the TGI with COLO 205 colon, in the assay with EKVX NSCLC, in the assay on LOX IMVI melanoma, in the assay with MOLT-4 leukemia, with NCI-H522 lung and in the assay with OVCAR-3 ovarian was more than 100 µM each time. Also, the TGI in the assay with RXF 393 renal, in the assay with SF-295 CNS, with SN12C renal, in the assay with SNB-19 CNS, in the assay on U251 CNS and with UO-31 renal was more than 100 µM in each case.

As for `CC1=N/C(=C\c2ccc(N)cc2)C(=O)N1Nc1nnc(NN2C(=O)/C(=C/c3ccc(N)cc3)N=C2C)c2ccccc12`, the TGI in the assay on COLO 205 colon is more than 100 µM; with EKVX NSCLC, more than 100 µM; in the assay on LOX IMVI melanoma, more than 100 µM; in the assay on MOLT-4 leukemia it was more than 100 µM; in the assay on NCI-H522 lung, 41.7 µM; in the assay with RXF 393 renal, more than 100 µM. The TGI is 69.3 µM with SF-295 CNS, more than 100 µM with SN12C renal, more than 100 µM in the assay with SNB-19 CNS and more than 100 µM with U251 CNS.

On to `COC(=O)C(=O)C(C(=O)C(=O)Nc1ccccc1C(N)=O)c1nc2ccc([N+](=O)[O-])cc2[nH]c1=O` (centres undefined), for which the TGI with COLO 205 colon, with EKVX NSCLC, in the assay with LOX IMVI melanoma, in the assay with MOLT-4 leukemia, in the assay with NCI-H522 lung and in the assay on RXF 393 renal was more than 100 µM each time. The TGI with SF-295 CNS, in the assay on SK-OV-3 ovarian, with SN12C renal, in the assay with SNB-19 CNS, in the assay on U251 CNS and in the assay with UO-31 renal was more than 100 µM throughout.

With `NC(=S)N/N=C/c1cn(CCCl)c2ccccc12`, the TGI in the assay on COLO 205 colon, in the assay on EKVX NSCLC, in the assay with LOX IMVI melanoma, in the assay with MOLT-4 leukemia, with NCI-H522 lung and in the assay on OVCAR-3 ovarian was more than 100 µM in each case. Besides, the TGI in the assay on RXF 393 renal, in the assay with SF-295 CNS, with SK-OV-3 ovarian, in the assay with SN12C renal, in the assay with SNB-19 CNS and in the assay on UO-31 renal was more than 100 µM throughout.

As to `CNC(=S)N/N=C(\C)c1cc(OC)c(OC)cc1O`, the TGI in the assay with COLO 205 colon, with DU-145 prostate, in the assay on EKVX NSCLC, with MDA-MB-435, in the assay on MOLT-4 leukemia and in the assay with OVCAR-3 ovarian was more than 100 µM in each case. For the same compound, the TGI in the assay on RXF 393 renal, with SK-OV-3 ovarian, in the assay on SN12C renal, in the assay with SNB-19 CNS, in the assay on U251 CNS and in the assay on UO-31 renal was more than 100 µM in each case.

As to `CC(=O)OCc1cc(OC(C)=O)c2cc3c(OC(C)=O)cccc3c(OC(C)=O)c2c1`, the TGI in the assay on COLO 205 colon was more than 100 µM; in the assay on DU-145 prostate it was 43.5 µM; in the assay with EKVX NSCLC, 34.1 µM; in the assay with MDA-MB-435 it was 43.9 µM; in the assay with MOLT-4 leukemia, more than 100 µM; with OVCAR-3 ovarian, 33.6 µM. Also, the TGI came out at 32.9 µM in the assay with SF-295 CNS; 41.1 µM with SK-OV-3 ovarian; 32.2 µM with SN12C renal; 50.6 µM with SNB-19 CNS; 32 µM with U251 CNS; 41.2 µM with UO-31 renal.

For `CNC(=O)CNC(=O)C(NC(=O)CNC(=O)C1CCCN1C(=O)C(C)NC(=O)C(NC(=O)OC(C)(C)C)C(C)C)C(C)C` (centres undefined) (Boc-VAPGVG-NHMe; configuration not given here), the TGI with COLO 205 colon, with DU-145 prostate, in the assay with EKVX NSCLC, in the assay with LOX IMVI melanoma, in the assay with MDA-MB-435 and in the assay on MOLT-4 leukemia was more than 100 µM in each case. In addition, the TGI with NCI-H522 lung, in the assay on OVCAR-3 ovarian, in the assay on SF-295 CNS, with SK-OV-3 ovarian, in the assay on SN12C renal and with SNB-19 CNS was more than 100 µM each time. Besides, the TGI in the assay on U251 CNS and in the assay on UO-31 renal was more than 100 µM throughout.

With `COc1ccc(/C=C2\C(=O)Nc3ccccc32)cc1OC`, the TGI in the assay on COLO 205 colon, in the assay with EKVX NSCLC, in the assay on LOX IMVI melanoma, in the assay on MOLT-4 leukemia, with NCI-H522 lung and in the assay on RXF 393 renal was more than 100 µM throughout. Moreover, the TGI with SF-295 CNS, in the assay on SK-OV-3 ovarian, with SN12C renal, with SNB-19 CNS, with U251 CNS and in the assay on UO-31 renal was more than 100 µM in each case.

Regarding `O=c1[nH]ncc2[nH]c(-c3ccccc3)cc12`, the TGI in the assay with COLO 205 colon, in the assay with DU-145 prostate, with EKVX NSCLC, in the assay with LOX IMVI melanoma, in the assay on MDA-MB-435 and with MOLT-4 leukemia was more than 100 µM throughout. The TGI with OVCAR-3 ovarian was more than 100 µM; with RXF 393 renal, 96.5 µM; in the assay on SF-295 CNS, more than 100 µM; in the assay with SK-OV-3 ovarian it was more than 100 µM; in the assay with SN12C renal, more than 100 µM; in the assay with SNB-19 CNS, more than 100 µM. The TGI in the assay with U251 CNS and in the assay with UO-31 renal was more than 100 µM throughout.

Take `CC(=O)c1cc2sc3ccccc3c2[nH]1`: the TGI in the assay with COLO 205 colon, in the assay with DU-145 prostate, in the assay on MDA-MB-435, in the assay on MOLT-4 leukemia, in the assay on NCI-H522 lung and in the assay with OVCAR-3 ovarian was more than 100 µM throughout. The TGI with RXF 393 renal, in the assay with SF-295 CNS, in the assay on SK-OV-3 ovarian, in the assay with SN12C renal, in the assay on SNB-19 CNS and with U251 CNS was more than 100 µM each time. For the same compound, the TGI in the assay with UO-31 renal is more than 100 µM.

For `COc1ccc(-c2cc(=O)c3cc4c(cc3[nH]2)OCO4)c(OC)c1`, the TGI with COLO 205 colon, in the assay with EKVX NSCLC, in the assay with LOX IMVI melanoma, with MOLT-4 leukemia, in the assay with NCI-H522 lung and in the assay on OVCAR-3 ovarian was more than 100 µM throughout. Also, the TGI with RXF 393 renal, in the assay on SF-295 CNS, in the assay with SK-OV-3 ovarian, in the assay with SN12C renal, in the assay with SNB-19 CNS and with U251 CNS was more than 100 µM in each case. In addition, in the assay with UO-31 renal, the TGI was more than 100 µM. The GI50 with OVCAR-3 ovarian was more than 100 µM; with RXF 393 renal, 45.4 µM; with SF-295 CNS, 46.2 µM.

As to `COc1ccc(-c2c(C(C)=O)c(C)n(C3OC(COC(C)=O)C(OC(C)=O)C(OC(C)=O)C3OC(C)=O)c(=S)c2C#N)cc1` (centres undefined), the TGI in the assay on COLO 205 colon, with DU-145 prostate, in the assay on LOX IMVI melanoma, in the assay on MDA-MB-435, in the assay with MOLT-4 leukemia and with NCI-H522 lung was more than 100 µM each time. The TGI with OVCAR-3 ovarian, in the assay with RXF 393 renal, with SF-295 CNS, with SK-OV-3 ovarian, with SN12C renal and in the assay with SNB-19 CNS was more than 100 µM in each case. For the same compound, the values for the TGI with U251 CNS and in the assay on UO-31 renal were more than 100 µM and 5.01 µM, respectively.

`N#CC(NNC(=O)Cc1ccccc1)c1ccc(O)cc1` (centres undefined): the TGI in the assay with COLO 205 colon, with LOX IMVI melanoma, in the assay with MOLT-4 leukemia, in the assay on NCI-H522 lung, in the assay on RXF 393 renal and in the assay on SF-295 CNS was more than 100 µM in each case. Also, the TGI with SK-OV-3 ovarian, in the assay on SN12C renal, in the assay with U251 CNS and with UO-31 renal was more than 100 µM in each case.

Regarding `O=C(CSc1nc(-c2ccccc2)c(-c2ccccc2)[nH]1)N/N=C/c1ccc([N+](=O)[O-])cc1`, the TGI in the assay on COLO 205 colon worked out at 30.7 µM; in the assay on LOX IMVI melanoma, 30.4 µM; in the assay with MOLT-4 leukemia, 48.5 µM; in the assay with NCI-H522 lung, 28.9 µM; in the assay on OVCAR-3 ovarian, 30 µM; in the assay on SF-295 CNS, 36.1 µM. The TGI in the assay on SK-OV-3 ovarian stood at 35.3 µM; in the assay with SN12C renal it was 31.9 µM; with U251 CNS, 27.5 µM; in the assay on UO-31 renal, 29.5 µM.

In the case of `CC1OC(n2ccc3ccc([N+](=O)[O-])cc32)C(O)C(O)C1O` (centres undefined), the TGI in the assay on COLO 205 colon, with EKVX NSCLC, with LOX IMVI melanoma, in the assay with MOLT-4 leukemia, with NCI-H522 lung and with OVCAR-3 ovarian was more than 100 µM in each case. In addition, the TGI with RXF 393 renal, in the assay on SF-295 CNS, in the assay on SK-OV-3 ovarian, with SN12C renal, in the assay with SNB-19 CNS and with U251 CNS was more than 100 µM throughout. The TGI with UO-31 renal was more than 100 µM.

In the case of `COc1cc(/C=C(\C)c2ccc3c(c2)OCO3)cc(OC)c1OC`, the TGI is 39.7 µM in the assay on COLO 205 colon; 51.8 µM in the assay with EKVX NSCLC; more than 100 µM in the assay on LOX IMVI melanoma; 75.9 µM in the assay with MOLT-4 leukemia; 69 µM in the assay on NCI-H522 lung; more than 100 µM with OVCAR-3 ovarian. For the same compound, the TGI is 99.5 µM in the assay on RXF 393 renal; more than 100 µM in the assay with SF-295 CNS; 75.1 µM with SK-OV-3 ovarian; more than 100 µM in the assay with SN12C renal; more than 100 µM in the assay on SNB-19 CNS; more than 100 µM in the assay with U251 CNS. The TGI in the assay with UO-31 renal was found to be 79.2 µM.

(Values after PubChem BioAssay (NCI).)
